Measured values reported in patent publication US11957671B2, “Benzodioxane modulators of leukotriene A4 hydrolase (LTA4H) for prevention and treatment of aging-associated diseases” (Alkahest, Inc., priority 2021, dated 2024).

Assays:
[1] = test system: aged wild type (WT; C57BL/6) mice; assay: qPCR of hippocampal gene expression; assay type: in vivo, mouse
Source text: Brains were collected following saline perfusion and separated by mid-sagittal slice with one-half dissected into hippocampus and cortex and then snap frozen on dry ice. RNA was isolated from brain tissue using the RNAeasy Qiagen Kit according to the manufacturer's instruction, briefly, tissue was homogenized using an Omni Bead Ruptor in RLT buffer, RNA was bound to RNA isolation column, washed and eluted. Contaminating DNA was removed by DNAse digestion and cDNA was generated using the Life Technologies SuperScript III Kit. A master mix for qPCR was made using the appropriate forward and reverse primers, and SYBR green reagent or TaqMan reagent. The reaction was run on a Life Technologies QuantStudio Real-Time PCR System and analyzed using the std ddCT protocol on the QuantStudio6 software.
(§1) Three independent cohorts of aged wild type (WT; C57BL/6) mice between twenty to twenty-two months of age (20-22 mo) were homogenized into two (2) groups by body weight, total distance travelled in the open field test, and average velocity in the open field test. Group 1 was administered vehicle control PO daily. Group 2 was administered 10 mg/kg of the LTA4H inhibitor Compound 1 PO daily. Both groups were dosed for either 10 days or 4 weeks daily. Behavioral assays were run during the last week of dosing and animals were sacrificed at the end of the study for histological and molecular assays.

aged C57BL6 mice = assay: Open Field; assay type: in vivo, mouse
Description: The open field test was used to evaluate general locomotor activity and exploratory behavior in a novel environment. It consisted of a square arena (16 in ×16 in). Mice were brought to the experimental room for at least 30 min of acclimation to the experimental room conditions (dim lighting) prior to testing. Mice were placed in the center of the arena, recorded, and tracked within a predefined peripheral and center space using the photobeam activity system automated software (ANY-maze) for 15 min. Total distance traveled, average velocity, and time spent in the peripheral and center zones were analyzed.
as §1

Body weight of aged mice = assay type: in vivo, mouse
Description: as §1

LTA4H hydrolase activity = LTA4H hydrolase activity (Mus musculus (Mouse), UniProt P24527); assay: Pharmacodynamic analysis of plasma LTB4 after a single dose; assay type: in vivo
Chain of LTA4H hydrolase activity (P24527 whole entry): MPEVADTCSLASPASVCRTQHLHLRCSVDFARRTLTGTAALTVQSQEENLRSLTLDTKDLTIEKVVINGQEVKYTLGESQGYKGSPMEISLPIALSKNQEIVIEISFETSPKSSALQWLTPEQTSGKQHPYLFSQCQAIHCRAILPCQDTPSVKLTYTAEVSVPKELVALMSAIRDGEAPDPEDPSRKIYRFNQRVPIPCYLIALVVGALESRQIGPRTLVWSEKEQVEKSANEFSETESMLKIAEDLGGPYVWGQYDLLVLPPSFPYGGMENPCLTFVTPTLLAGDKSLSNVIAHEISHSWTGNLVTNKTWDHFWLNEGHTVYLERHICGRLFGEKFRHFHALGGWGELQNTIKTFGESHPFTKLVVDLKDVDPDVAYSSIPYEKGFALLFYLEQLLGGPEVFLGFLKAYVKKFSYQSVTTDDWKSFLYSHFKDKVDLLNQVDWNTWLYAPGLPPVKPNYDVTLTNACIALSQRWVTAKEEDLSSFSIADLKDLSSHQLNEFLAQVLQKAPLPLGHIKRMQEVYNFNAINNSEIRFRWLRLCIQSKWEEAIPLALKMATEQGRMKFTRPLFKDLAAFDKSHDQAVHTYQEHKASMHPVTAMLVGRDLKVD
Description: Whole blood was collected by cardiac puncture using heparin as an anti-coagulant. 160 μL of whole blood was collected in duplicate for each mouse and incubated for 15 minutes in 37° C./5% CO2. During this time a 0.1 mM calcimycin stock was made by diluting 10 mM calcimycin (Sigma C7522) formulated in DMSO into PBS. Control solution was made by diluting the same volume of DMSO in PBS. Both solutions were sonicated for 10 minutes in a 37° C. water bath. 40 μL of 0.1 mM calcimycin (stimulated) or control solution (unstimulated) was added to each well of whole blood and incubated at 37° C./5% CO2 for 30 minutes. Whole blood was spun for 10 minutes at 1000×g to separate out plasma. LTB4 levels were detected by running an ELISA on the collected stimulated and unstimulated plasma diluted 1:10 (Enzo Life Sciences, ADI-901-068). The ELISA plates were read on a BMG LABTECH CLARIOstar plate reader at 405 nm.

Notch3R169C mice = assay: CADASIL transgenic mouse model Notch3R169C, 4 months dosing (Example 24); assay type: in vivo; conditions: 1 mg/kg PO BID 4 months
Description: Notch3^R169C mice (5-month-old) were treated PO BID with either vehicle or Compound 1 (1 mg/kg) for 4 months and littermate WT controls were treated with vehicle for 4 months. Prior to sacrifice, syringes were prepped with 7.5 μL of 1000 U/mL heparin. To increase LTB4 plasma levels, whole blood was stimulated with calcimycin prior to generation of plasma. First, 100 μL of 10 mM calcimycin (Sigma #C7522) in DMSO was diluted into 10 mL of PBS and sonicated for 10 minutes at 37° C. In a 96 well polystyrene plate (Corning 354657), 160 μL of mouse whole blood was collected for each animal and incubated for 15 minutes in a 37° C./5% CO2 (Panasonic MCO-230AICUV-PA). Next, 40 μL of the 100 μM calcimycin working solution was added to each well and incubated again for 30 minutes at 37° C./5% CO2. After incubation, the plates were centrifuged for 10 minutes at 4° C. at 1500 rpm. Plasma was diluted 1:10 and analyzed for LTB4 using LTB4 ELISA Kit (Enzo Life Sciences, ADI-901-068) in duplicate following the included kit protocol. The final readings were collected on a BMG LABTECH CLARIOstar plate reader at 405 nm. Brain tissue was dissected for cortex. One third of the cortex was homogenized in RIPA buffer (EMD Millipore 20-188) using an Omni BeadRuptor 24. Lysates were centrifuged for 10 mins at 10,000 g at 4° C. to collect the supernatant. Protein concentration was determined by BCA (Thermo Fisher 23225) and then diluted in PBS to approximately 10 mg/ml. Samples were sent to Eve Technologies for analysis.

O=C(O)C1CCN(Cc2ccc([C@H]3COc4ccccc4O3)cc2)CC1 [Example 1, 1-{4-[(2S)-2,3-dihydro-1,4-benzodioxin-2-yl]benzyl}piperidine-4-carboxylic acid]
dcx hippocampal gene expression ([1]; 4 weeks of dosing): increased dcx hippocampal gene expression | h2d1 hippocampal gene expression ([1]; 10 days and 4 weeks of dosing): trends towards reduced h2d1 hippocampal gene expression | creb1 hippocampal gene expression ([1]; 10 days of dosing): increased creb1 hippocampal gene expression | egr1 hippocampal gene expression ([1]; 10 days of dosing): increased egr1 hippocampal gene expression | iba1 hippocampal gene expression ([1]; 10 days of dosing): trends towards reduced iba1 hippocampal gene expression | il1b hippocampal gene expression ([1]; 10 days of dosing): trends towards reduced il1b hippocampal gene expression | time spent in periphery (P) or center (C) (aged C57BL6 mice; 4 weeks of dosing): no difference between time spent in the periphery (P) or center (C) | total distance traveled in open field (aged C57BL6 mice; 4 weeks of dosing): no change in total distance traveled | velocity in open field (aged C57BL6 mice; 4 weeks of dosing): no change in velocity | time spent in periphery (P) or center (C) (aged C57BL6 mice; 10 days of dosing): no difference between time spent in the periphery (P) or center (C) | total distance traveled in open field (aged C57BL6 mice; 10 days of dosing): no change in total distance traveled | velocity in open field (aged C57BL6 mice; 10 days of dosing): no change in velocity | body weight (Body weight of aged mice; 4 weeks of dosing, first cohort): no change in body weight | body weight (Body weight of aged mice; 4 weeks of dosing, second cohort): no change in body weight | body weight (Body weight of aged mice; 4 weeks of dosing, third cohort): no change in body weight | body weight (Body weight of aged mice; 10 days of dosing, first cohort): no change in body weight | body weight (Body weight of aged mice; 10 days of dosing, second cohort): no change in body weight | body weight (Body weight of aged mice; 10 days of dosing, third cohort): no change in body weight | calcimycin stimulated plasma LTB4 levels (LTA4H hydrolase activity; single 1 mg/kg oral dose, multiple timepoints, C57BL/6 mice): reduction in the pharmacodynamic readout of calcimycin stimulated plasma LTB4 levels | plasma LTB4 levels, dose response (LTA4H hydrolase activity; single dose 0.3, 0.1 or 0.03 mg/kg, 6 hours post dosing): dose response in the pharmacodynamic readout of plasma LTB4 levels | IL-2 levels in plasma (Notch3R169C mice): significantly reduced | IL-7 levels in brain cortex lysate (Notch3R169C mice): significantly reduced | LTB4 levels in stimulated plasma (Notch3R169C mice): significantly reduced | LTB4 levels in unstimulated plasma (Notch3R169C mice): no change in LTB4 levels detected between groups
